US7005418B1, “Method for the therapeutic management of extrauterine proliferation of endometrial tissue, chronic pelvic pain and fallopian tube obstruction” (Zentaris GmbH, priority 1999, dated 2006)
Non-standard residues stand in square brackets, D forms with d. Residues, ends and D or L forms follow the SMILES beside them. dPhe(4-Cl) = N[C@H](Cc1ccc(Cl)cc1)C(=O)O; d2Nal = N[C@H](Cc1ccc2ccccc2c1)C(=O)O; dCit = NC(=O)NCCC[C@@H](N)C(=O)O; d3Pal = N[C@H](Cc1cccnc1)C(=O)O

Assays:
[1] = tested on: patients with confirmed endometriosis; assay: Weekly s.c. LHRH-antagonist treatment for 8 weeks in patients with endometriosis: clinical outcome and tolerability (2nd look laparascopy, histological biopsies); format: in vivo, human (patients); settings: for hot flushes or other (estradiol) withdrawal symptoms / proliferation of the endometrium at the end of treatment (histological biopsies): patients with endometriosis, 3 mg weekly for 8 weeks
Method: (§1) The weekly administration of an adequate dose of an LHRH antagonist, e.g. 3 mg Cetrotide® s.c./ per week over a period of eight weeks leads to a controlled suppression of estrogen secretion so that serum concentrations between about 35 pg/ml and about 80 pg/ml, preferably between about 45–75 pg/ml, more preferably between about 50–75 pg/ml are obtained. […] Also the development of osteoporosis can be avoided.

[2] = tested on: estradiol secretion; assay: Weekly s.c. LHRH-antagonist treatment for 8 weeks in patients with endometriosis: estradiol serum levels; format: in vivo, human (patients); settings: weekly dose of 1 mg resp. 3 mg once per week
Method: 3 mg once per week. The estradiol serum levels are between about 35–80 pg/ml, preferably between about 45–75 pg/ml, more preferably between about 50–75 pg/ml.
as §1

[3] = nine patients with confirmed endometriosis, 3 mg s.c. weekly for 8 weeks

Row | SMILES | ovarian cyst formation [1, 3] | progress of the disease, confirmed by 2nd look laparascopy [1, 3] | hot flushes or other (estradiol) withdrawal symptoms [1] | proliferation of the endometrium at the end of treatment (histological biopsies) [1] | estradiol serum levels (FIG. 2) [2]
1 | CC(=O)N[C@H](Cc1ccc2ccccc2c1)C(=O)N[C@H](Cc1ccc(Cl)cc1)C(=O)N[C@H](Cc1cccnc1)C(=O)N[C@@H](CO)C(=O)N[C@@H](Cc1ccc(O)cc1)C(=O)N[C@H](CCCNC(N)=O)C(=O)N[C@@H](CC(C)C)C(=O)N[C@@H](CCCNC(=N)N)C(=O)N1CCC[C@H]1C(=O)N[C@H](C)C(N)=O [Cetrorelix acetate] (Ac-[d2Nal][dPhe(4-Cl)][d3Pal]SY[dCit]LRP[dA]-NH2) | No ovarian cyst formation occurred | without any progress of the disease | avoiding any hot flushes or other withdrawal symptoms | no proliferation of the endometrium | 
2 | CC(=O)N[C@H](Cc1ccc2ccccc2c1)C(=O)N[C@H](Cc1ccc(Cl)cc1)C(=O)N[C@H](Cc1cccnc1)C(=O)N[C@@H](CO)C(=O)N[C@@H](Cc1ccc(O)cc1)C(=O)N[C@H](CCCNC(N)=O)C(=O)N[C@@H](CC(C)C)C(=O)N[C@@H](CCCNC(=N)N)C(=O)N1CCC[C@H]1C(=O)N[C@H](C)C(N)=O [Cetrorelix] (Ac-[d2Nal][dPhe(4-Cl)][d3Pal]SY[dCit]LRP[dA]-NH2) |  |  | without any signs of estradiol withdrawal symptoms | without proliferation of the endometrium | 35 to 80 pg/mL
